Values quoted from earlier work as cited in US8273685B2, “Agrochemical composition” (Nippon Soda Co., Ltd., priority 2006, dated 2012).

Conditions: 1-octanol/water
For COC(=O)c1c(C(F)F)nc(C(F)(F)F)c(C2=NCCS2)c1CC(C)C [Thiazopyr, methyl 2-difluoromethyl-5-(4,5-dihydro-1,3-triazol-2-yl)-4-isobutyl-6-trifluoromethylnicotinate], the “Log P” value is given as 3.89.
In the case of Cc1c(F)c(F)c(COC(=O)[C@@H]2[C@H](/C=C(\Cl)C(F)(F)F)C2(C)C)c(F)c1F (racemic) [Tefluthrin, 2,3,5,6-tetrafluoro-4-methylbenzyl (1RS,3RS)-3-[(Z)-2-chloro-3,3,3-trifluoroprop-1-enyl]-2,2-dimethylcyclopropanecarboxylat], the “Log P” value is listed as 6.5.
For O=C(NC(=O)c1c(F)cccc1F)Nc1cc(Cl)c(OC(F)(F)C(F)F)c(Cl)c1 [Hexaflumuron, 1-[3,5-dichloro-4-(1,1,2,2-tetrafluoroethoxy)phenyl]-3-(2,6-difluorobenzoyl)urea], the “Log P” value is given as 4.68.
For O=C(NC(=O)c1c(F)cccc1F)Nc1ccc(Cl)c(Oc2ncc(C(F)(F)F)cc2Cl)c1 [Fluazuron, 1-[4-chloro-3-(3-chloro-5-trifluoromethyl-2-pyridyloxy)phenyl]-3-(2,6-difluorobenzoyl)urea], the “Log P” value is listed as 5.1.
For CCN(Cc1c(F)cccc1Cl)c1c([N+](=O)[O-])cc(C(F)(F)F)cc1[N+](=O)[O-] [Flumetralin, N-(2-chloro-6-fluorobenzyl)-N-ethyl-alpha,alpha,alpha-trifluoro-2,6-dinitro-p-toluidine], the “Log P” value is listed as > 3.
